Reference: patent publication US11459545B2, “Methods to enhance delivery and engraftment of stem cells including the identification of specific prostaglandin E2 receptors” (INDIANA UNIVERSITY RESEARCH AND TECHNOLOGY CORPORATION, priority 2009, dated 2022)

Tested on: CD34+ cells from cord blood
Experiment: CXCR4 expression on CD34+ cells after ex vivo pulse exposure (flow cytometry)
Format: cell-based, human
Conditions: for up regulation of CXCR4 on the surface of CD34+ cells: cord blood samples, ex vivo pulse exposure, cytometry histograms compared to isotype control (FIG. 1)
Experimental: Un-manipulated hematopoietic grafts or purified hematopoietic stem cell populations (e.g., SKL cells in mice or CD34^+ cells in humans) are incubated with an EP4 specific agonist: 5-[(1E,3R)-4,4-difluoro-3-hydroxy-4-phenyl-1-buten-1-yl]-1-[6-(2H-tetrazol-5R-yl)hexyl]-2-pyrrolidinone (i.e. L-902,688), on ice or at room temperature at concentrations of 0.001-10 microMolar agonist per 1-10 million cells in 1 ml of culture medium, e.g. IMDM, for 15 minutes-6 hrs. After incubation, the cells are washed 3 times in sterile media or saline and administered to recipients, intravenously. L-902,688 was a generous gift from Merck Frosst (Kirkland, Canada) (Young, et al., 2004).
Referring now to FIG. 1. This graph illustrates that treatment of cells with EP4 agonist ex vivo specifically up regulates CXCR4 expression on CD34^+ cells. […] The bar graph indicator data measured from such experiments graphed as a function of different compounds used dmPGE2, Butaprostone, sulprostone and EP4.
Referring now to FIG. 2. This graph illustrates that signaling via the EP4 receptor is responsible for up regulation of CXCR4 expression. […] Treatment with EP4 agonist ex vivo up regulates CXCR4 expression on CD34^+ cells. […] In the bar chart this effort is normalized to 100%. […] The fact that up regulation of CXCR4 by an EP4 selective agonist is blocked by a selective EP4 antagonist, but not by EP1, 2, 3, antagonist, provides additional evidence that up regulation is mediated through the EP4 receptor.

Compound	up regulation of CXCR4 on the surface of CD34+ cells	up regulation of CXCR4 expression on CD34+ cells (ex vivo treatment, combined data for 8 cord blood samples (FIG. 2))
O=C1CC[C@H](/C=C/[C@@H](O)C(F)(F)c2ccccc2)N1CCCCCCc1nn[nH]n1 [EP4 agonist, 5-[(1E,3R)-4,4-difluoro-3-hydroxy-4-phenyl-1-buten-1-yl]-1-[6-(2H-tetrazol-5R-yl)hexyl]-2-pyrrolidinone]	significant up regulation	about 3 fold
CCCCC(C)(C)[C@H](O)/C=C/[C@H]1[C@H](O)CC(=O)[C@@H]1C/C=C\CCCC(=O)O [dmPGE2, 16,16 dimethylprostaglandin E2]	significant up regulation	
